Test results from US20240156773A1, “METHOD FOR INCREASING BLOOD DECANOIC ACID CONCENTRATION, BLOOD-DECANOIC-ACID-CONCENTRATION-INCREASING AGENT, PHARMACEUTICAL COMPOSITION, AND FOOD COMPOSITION” (The Nisshin OilliO Group, Ltd., priority 2021, published 2024).

Test: Administration test of triglyceride to rat: blood decanoic acid concentration
Conditions: in vivo, po
Experimental: Male SD rats aged 7 weeks (Japan SLC, Inc.) were kept using a TPX cage (W21.8×D37.3×H18.1 cm) with three rats or less/cage. The rats were fed ad libitum with solid feed “Labo MR stock” (Nosan Corporation.) sterilized with radiation throughout the feeding period, and fasted about 16 hours before the administration of a test fat and oil sample. The rats were fed ad libitum with distilled water as drinking water using a water supply bottle. The acclimation period was a week, and it was confirmed that abnormalities of general conditions were not observed on the final day of the acclimation period, and body weight was measured using an electronic scale (GX-3000; A & D Company, Limited). The rats were divided into 6 groups for each test fat and oil sample using a grouping software (Statlight; Yukms Co., Ltd.) so that the body weight of the groups was almost equal (6 rats in each group).
Each TG was orally administered in a single dose at 1 mL/body using a 1 mL disposable syringe and a disposable gastric tube for rats. […]
To the extracted lipid fraction, 2 ml of a 0.5 mol/L NaOH-methanol solution was added. […] The hexane layer was transferred to a vial, and used for GC (Agilent Technologies) in the conditions shown in Table 3, and the blood decanoic acid concentration was determined by the internal standard method. […]

Blood decanoic acid concentration, average value: 124.4 µM
SMILES: CCCCCCCCCC(=O)OCC(COC(=O)CCCCCCCCC)OC(=O)CCCCCCCCC [TG1, tridecanoin]
